Measured values as given in patent US4686237A, “Erythro-(E)-7-[3'-C1-3 alkyl-1'-(3",5"-dimethylphenyl)naphth-2'-yl]-3,5-dihydroxyhept-6-enoic acids and derivatives thereof” (Sandoz Pharmaceuticals Corp., priority 1986, dated 1987).
Where two headings read alike, the source gives them in different places.

How the values were obtained:
HMG-CoA reductase = target: T1, HMG-CoA reductase (Rattus norvegicus, UniProt P51639); experiment: Test A. In Vitro Microsomal Assay of HMG-CoA Reductase Inhibition; type: biochemical; details: rat liver microsomal suspensions, male Sprague-Dawley rats; read-out: IC50 (concentration of the test substance calculated to produce a 50% inhibition of HMG-CoA reductase activity)
T1 construct: In the assay the microsomes are the source of the HMG-CoA reductase enzyme; from tissue; host or cells: rat liver microsomes (male Sprague-Dawley rats)
T1 sequence (P51639 1-887): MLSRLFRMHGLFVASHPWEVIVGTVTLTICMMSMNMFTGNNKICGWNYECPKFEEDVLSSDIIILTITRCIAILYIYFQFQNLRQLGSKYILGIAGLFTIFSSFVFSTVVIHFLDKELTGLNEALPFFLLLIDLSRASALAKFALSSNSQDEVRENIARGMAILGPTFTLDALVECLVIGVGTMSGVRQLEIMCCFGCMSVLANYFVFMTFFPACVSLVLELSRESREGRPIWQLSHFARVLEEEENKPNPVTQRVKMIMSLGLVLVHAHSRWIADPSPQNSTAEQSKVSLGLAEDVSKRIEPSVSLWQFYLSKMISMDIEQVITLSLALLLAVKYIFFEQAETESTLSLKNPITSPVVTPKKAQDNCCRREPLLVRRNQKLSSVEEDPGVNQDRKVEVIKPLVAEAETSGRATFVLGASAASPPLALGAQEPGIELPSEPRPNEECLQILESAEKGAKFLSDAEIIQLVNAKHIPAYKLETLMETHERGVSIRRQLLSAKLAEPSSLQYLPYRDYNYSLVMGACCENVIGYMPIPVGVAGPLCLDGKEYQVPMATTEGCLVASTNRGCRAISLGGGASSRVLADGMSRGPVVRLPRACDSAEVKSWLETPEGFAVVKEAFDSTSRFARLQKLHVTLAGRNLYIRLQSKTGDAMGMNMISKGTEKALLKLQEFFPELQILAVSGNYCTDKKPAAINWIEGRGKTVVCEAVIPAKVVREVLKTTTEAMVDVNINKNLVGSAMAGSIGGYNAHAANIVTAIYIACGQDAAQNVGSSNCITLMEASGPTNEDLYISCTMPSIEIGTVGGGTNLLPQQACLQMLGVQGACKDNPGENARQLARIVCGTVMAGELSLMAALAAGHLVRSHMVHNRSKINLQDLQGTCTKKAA
Method: Test A. In Vitro Microsomal Assay of HMG-CoA Reductase Inhibition:
200 μl. aliquots (1.08-1.50 mg./ml.) of rat liver microsomal suspensions, freshly prepared from male Sprague-Dawley rats (150-225 g. body weight), in Buffer A with 10 mmol. dithiothreitol are incubated with 10 μl. of a solution of the test substance in dimethylacetamide and assayed for HMG-CoA reduotase activity as described in Ackerman et al., J. Lipid Res. 18, 408-413 (1977). In the assay the microsomes are the source of the HMG-CoA reductase enzyme which catalyzes the reduction of HMG-CoA to mevalonate. The assay employs a chloroform extraction to separate the product, [^14 C]mevalonolactone, formed by the HMG-CoA reductase reaction from the substrate, [^14 C]HMG-CoA. [^3 H]mevalonolactoneis added as an internal reference. Inhibition of HMG-CoA reductase is calculated from the decrease in specific activity ([^14 C/^3 H]mevalonate) of test groups compared to controls.
IC50 is the concentration of the test substance in
the assay system calculated to produce a 50%
inhibition of HMG-CoA reductase activity.

cholesterol biosynthesis = experiment: Test C: In Vivo Cholesterol Biosynthesis Inhibition Test; set-up: species or system rat; details: for change in sterol synthesis (nCi of sterols formed) from test groups compared to controls: at 0.5 mg./kg.; for ED50: Rattus norvegicus, ip, read-out: ED50 (inhibition of sterol synthesis)
From the text: Test C: In Vivo Cholesterol Biosynthesis Inhibition Test: In vivo studies utilize male Wistar Royal Hart rats weighing 150±20 g. which have been kept for 7-10 days on an altered light cycle (6:30 A.M.-6:30 P.M. dark) housed two per cage and fed powdered Purina Rat Chow and water ad libitum. […] Controls receive vehicle alone. […] Two hours after mid-dark, blood samples are obtained under sodium hexobarbitol anesthesia and the serum is separated by centrifugation. […] The [^14 C]digitonides are then counted by liquid scintillation spectrometry. […] Inhibition of sterol synthesis is calculated from the reduction in the nCi of sterols formed from test groups compared to controls.

[1] = male Wistar Royal Hart rats, [1-14C]acetate i.p.

| IC50 (HMG-CoA reductase) [nM] | SMILES | change in sterol synthesis (nCi of sterols formed) from test groups compared to controls (cholesterol biosynthesis; [1]) [%] | ED50 (cholesterol biosynthesis; [1]) [mg/kg] | ED50 (cholesterol biosynthesis) [mg/kg] |
| --- | --- | --- | --- | --- |
| 80 | CCOC(=O)C[C@H](O)C[C@H](O)/C=C/c1c(C)cc2ccccc2c1-c1cc(C)cc(C)c1 (relative stereo) [Example 1, Ethyl erythro-(E)-3,5-dihydroxy-7-[1'-(3",5"-dimethylphenyl)-3-methylnaphth-2'-yl]hept-6-enoate] | -35 | – | – |
| 10 | Cc1cc(C)cc(-c2c(/C=C/[C@@H](O)C[C@@H](O)CC(=O)O)c(C)cc3ccccc23)c1 (relative stereo) [Example 2, Sodium erythro-(E)-3,5-dihydroxy-7-[1'-(3",5"-dimethylphenyl)-3'-methylnaphth-2'-yl]hept-6-enoate] | – | 0.3 | – |
| 330 | Cc1cc(C)cc(-c2c(/C=C/[C@@H]3C[C@@H](O)CC(=O)O3)c(C)cc3ccccc23)c1 (relative stereo) [Example 4, (E)-Trans-6-(2'-[1"-(3"',5"'-dimethylphenyl)-3"-methylnaphth-2"-yl]ethenyl)-4-hydroxy-3,4,5,6-tetrahydro-2H-pyran-2-one] | -20 | – | – |
| 770 | CC[C@H](C)C(=O)O[C@H]1CCC=C2C=C[C@H](C)[C@H](CC[C@@H]3C[C@@H](O)CC(=O)O3)[C@H]21 [Compactin, reference compound] | – | 3.5 | – |
| – | CC[C@H](C)C(=O)O[C@H]1C[C@@H](C)C=C2C=C[C@H](C)[C@H](CC[C@@H]3C[C@@H](O)CC(=O)O3)[C@H]21 [Mevinolin, reference compound] | – | – | 0.41 |
